Laboratory results published in patent US10961222B2, “Chemical compound of isocitrate dehydrogenase inhibitor, and application thereof” (NANJING SANHOME PHARMACEUTICAL CO., LTD., priority 2016, dated 2021).

Target: T1, IDH2-R140Q mutant enzyme (Homo sapiens, UniProt P48735, R140Q)
T1 construct: purchased BPS 71100-1
T1 sequence (P48735 40-452 R140Q): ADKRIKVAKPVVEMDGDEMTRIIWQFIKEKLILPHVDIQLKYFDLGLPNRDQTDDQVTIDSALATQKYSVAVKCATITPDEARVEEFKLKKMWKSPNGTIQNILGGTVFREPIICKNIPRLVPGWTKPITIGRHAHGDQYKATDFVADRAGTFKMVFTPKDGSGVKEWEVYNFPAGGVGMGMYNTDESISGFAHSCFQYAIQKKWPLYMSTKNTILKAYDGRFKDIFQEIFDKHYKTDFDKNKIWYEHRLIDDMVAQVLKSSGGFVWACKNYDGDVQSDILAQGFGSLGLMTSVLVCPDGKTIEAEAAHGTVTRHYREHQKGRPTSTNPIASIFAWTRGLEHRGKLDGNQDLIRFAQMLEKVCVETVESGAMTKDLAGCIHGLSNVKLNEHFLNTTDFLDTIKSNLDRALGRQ
Experiment: Inhibitory activity of compounds on IDH2-R140Q enzyme in vitro (diaphorase/resazurin fluorescence)
Assay type: biochemical
Conditions: R140Q IC50, IDH2-R140Q, pre-incubated 16 h with enzyme and NADPH, reaction 1 h with α-ketoglutarate

How did the IC50 turn out when CC(C)(O)CNc1nc(Nc2ccnc(C(F)(F)F)c2)nc(-c2cccc(C(F)(F)F)n2)n1 [AG-221, 2-methyl-1-(4-(6-(trifluoromethyl)pyridin-2-yl)-6-(2-(trifluoromethyl)pyridin-4-ylamino)-1,3,5-triazin-2ylamino)propan-2-ol, reference compound] was run?
The IC50 was 21 nM.
